Data taken from ChEMBL document CHEMBL3879914, “Inhibitors of central nervous system vasoactive inhibitory peptide receptor 2” (2014).

Experiments:
[1] = target: T1, Vasoactive intestinal polypeptide receptor 2 (Homo sapiens) (UniProt P41587); assay: (§1) Antagonist activity at recombinant human N-terminal signal peptide/FLAG epitope-tagged VIPR2 expressed in HEK293 cells co-expressing CAMYEL assessed as inhibition of VIP-induced cAMP accumulation at 0.5 uM preincubated for 5 mins with luciferin, coelenterazine H followed by VIP addition measured after 5 mins by BRET assay relative to control; type: functional, cell-based
T1 sequence (whole entry): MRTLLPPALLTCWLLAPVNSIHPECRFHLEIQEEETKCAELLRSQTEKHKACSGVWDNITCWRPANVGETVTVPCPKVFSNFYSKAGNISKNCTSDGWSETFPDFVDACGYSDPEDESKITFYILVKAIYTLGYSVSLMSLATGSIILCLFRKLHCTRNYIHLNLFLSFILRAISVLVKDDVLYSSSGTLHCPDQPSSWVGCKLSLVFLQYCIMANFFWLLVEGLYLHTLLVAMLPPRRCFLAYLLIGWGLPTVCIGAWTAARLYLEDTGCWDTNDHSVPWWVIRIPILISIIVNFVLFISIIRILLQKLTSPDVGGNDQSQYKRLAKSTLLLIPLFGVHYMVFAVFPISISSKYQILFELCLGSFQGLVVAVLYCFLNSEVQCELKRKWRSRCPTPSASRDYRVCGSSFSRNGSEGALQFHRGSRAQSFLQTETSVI

[2] = target: T1, Vasoactive intestinal polypeptide receptor 2 (Homo sapiens); assay: as §1, with “1” for “0.5”; type: functional, cell-based
[3] = target: T1, Vasoactive intestinal polypeptide receptor 2 (Homo sapiens); assay: as §1, with “5” for “0.5”; type: functional, cell-based
[4] = target: T1, Vasoactive intestinal polypeptide receptor 2 (Homo sapiens); assay: as §1, with “epitope-tagged Rluc8-fused” for “epitope-tagged”, “cells” for “cells co-expressing CAMYEL”, “human mVenus-beta-arrestin2 binding” for “cAMP accumulation”, “1” for “0.5”; type: cell-based
[5] = target: T1, Vasoactive intestinal polypeptide receptor 2 (Homo sapiens); assay: as §1, with “epitope-tagged Rluc8-fused” for “epitope-tagged”, “cells” for “cells co-expressing CAMYEL”, “human mVenus-beta-arrestin2 binding” for “cAMP accumulation”, “5” for “0.5”; type: cell-based
[6] = target: T1, Vasoactive intestinal polypeptide receptor 2 (Homo sapiens); assay: as §1, with “epitope-tagged Rluc8-fused” for “epitope-tagged”, “cells” for “cells co-expressing CAMYEL”, “human mVenus-beta-arrestin2 binding” for “cAMP accumulation”; type: cell-based

SMILES	inhibition [1] [%]	inhibition [2] [%]	inhibition [3] [%]	inhibition [4] [%]	inhibition [5] [%]	inhibition [6] [%]
CC(=O)Nc1ccc(S(=O)(=O)NC[C@H](C[C@@H](Cc2ccccc2)C(=O)N[C@H]2c3ccccc3C[C@H]2O)OC(C)=O)cc1	-4.3	32.3	3	-1.8	10.5	-9.8 to 6.75
CC(C)C(=O)Nc1ccc(S(=O)(=O)NC[C@@H](O)C[C@@H](Cc2ccccc2)C(=O)N[C@H]2c3ccccc3C[C@H]2O)cc1	1	6.9	16.7	5.1	-7.5	4.6 to 5.3
O=C(NCc1ccccc1)[C@@H](Cc1ccccc1)C[C@H](O)CNS(=O)(=O)c1ccc([N+](=O)[O-])cc1	-1	1.5	4.9	-4.1	7.2	-0.3 to 6.05
O=C(NC1Cc2ccccc2C1)[C@H](Cc1ccccc1)C[C@H](O)CNS(=O)(=O)c1ccc([N+](=O)[O-])cc1	5.7	7.5	16	8.1	9.8	-2.7 to 12.9
O=C(NC1CCCc2ccccc21)[C@H](Cc1ccccc1)C[C@H](O)CNS(=O)(=O)c1ccc([N+](=O)[O-])cc1 (stereo partly specified)	8.8	12.4	17.5	7.4	10.2	3.3 to 13.8
O=C(NC[C@@H](O)C[C@@H](Cc1ccccc1)C(=O)N[C@H]1c2ccccc2C[C@H]1O)c1ccco1	20.8	22.5	19.1	27.7	33.3	26.2 to 30.3
Cc1cc(S(=O)(=O)NC[C@@H](O)C[C@@H](Cc2ccccc2)C(=O)N[C@H]2c3ccccc3C[C@H]2O)c(C)cc1Cl	20.6	21.6	41.1	30.2	0.6	17.6 to 20.9
O=C(O)c1ccc(S(=O)(=O)NC[C@@H](O)C[C@@H](Cc2ccccc2)C(=O)N[C@H]2c3ccccc3C[C@H]2O)cc1	7.4	6.4	26	-1.8	0.2	6.4 to 13.1
CC(C)CS(=O)(=O)NC[C@@H](O)C[C@@H](Cc1ccccc1)C(=O)N[C@H]1c2ccccc2C[C@H]1O	13.3	15.6	22.2	3.2	20	7.1 to 21.1
O=C(NC[C@@H](O)C[C@@H](Cc1ccccc1)C(=O)N[C@H]1c2ccccc2C[C@H]1O)C1CCCCCC1	18.4	17	17	16.4	10.5	13.8 to 24.4
C#CCNC(=O)[C@H](Cc1ccccc1)C[C@H](O)CNS(=O)(=O)c1ccc([N+](=O)[O-])cc1	5.4	7.8	7.3	7.2	-0.2	3.55 to 9.4
CC(C)(C)c1ccc(S(=O)(=O)NC[C@@H](O)C[C@@H](Cc2ccccc2)C(=O)N[C@H]2c3ccccc3C[C@H]2O)cc1	9.7	13	72.1	18.1	56.7	0
CC(C)c1ccc(S(=O)(=O)NC[C@@H](O)C[C@@H](Cc2ccccc2)C(=O)N[C@H]2c3ccccc3C[C@H]2O)cc1	36.5	44.2	98.2	63.1	87.7	31.5 to 93
COc1ccc(S(=O)(=O)NC[C@@H](O)C[C@@H](Cc2ccccc2)C(=O)N[C@H]2c3ccccc3C[C@H]2O)cc1	33.9	45.9	93.8	76.7	89.4	54.1 to 91.6
N#Cc1ccc(S(=O)(=O)NC[C@@H](O)C[C@@H](Cc2ccccc2)C(=O)N[C@H]2c3ccccc3C[C@H]2O)cc1	27.3	43.6	93.1	59.5	90.4	38.5 to 91.8
O=C(N[C@H]1c2ccccc2C[C@H]1O)[C@H](Cc1ccccc1)C[C@H](O)CNS(=O)(=O)c1ccc(C(=O)N2CCOCC2)cc1	-1.4	0.1	25.5	1.8	-5.4	4.1 to 10.1
O=C(NC1CCCCCC1)[C@@H](Cc1ccccc1)C[C@H](O)CNS(=O)(=O)c1ccc([N+](=O)[O-])cc1	15.5	10.6	14.3	3.6	6.8	-4 to 10.6
O=C(NC[C@@H](O)C[C@@H](Cc1ccccc1)C(=O)N[C@H]1c2ccccc2C[C@H]1O)c1c(Cl)cc(Cl)cc1Cl	17.6	14.8	12.3	25.3	31.5	21.9 to 23.9
C#CCCCC(=O)NC[C@@H](O)C[C@@H](Cc1ccccc1)C(=O)N[C@H]1c2ccccc2C[C@H]1O	20.8	20.2	26.6	16.1	25.8	26.2 to 45.8
O=C(NCc1ccccc1)[C@H](Cc1ccccc1)C[C@H](O)CNS(=O)(=O)c1ccc([N+](=O)[O-])cc1	-1.1	-1.3	-2.9	4.4	24.2	1.8 to 10.7
O=C(NC[C@@H](O)C[C@@H](Cc1ccccc1)C(=O)N[C@H]1c2ccccc2C[C@H]1O)c1cccc([N+](=O)[O-])c1	11.8	11	13.5	7.4	-4	4.75 to 19.9

Results, then the compound that gave them:

inhibition [1] [%]	inhibition [2] [%]	inhibition [3] [%]	inhibition [4] [%]	inhibition [5] [%]	inhibition [6] [%]	SMILES
23	18.8	24.7	24.8	21	10.7 to 22.9	O=C(N[C@H]1c2ccccc2C[C@H]1O)[C@H](Cc1ccccc1)C[C@H](O)CNS(=O)(=O)c1ccccc1C(F)(F)F
5.1	6.6 to 69.5	17.4 to 69.5	5.9	0.6	4.8 to 9	O=C(NC1CCCc2ccccc21)[C@@H](Cc1ccccc1)C[C@H](O)CNS(=O)(=O)c1ccc([N+](=O)[O-])cc1 (stereo partly specified)
-2.9	11.3	24.5	2.6	6.7	4.1 to 15.6	CCCNc1ccc(S(=O)(=O)NC[C@@H](O)C[C@@H](Cc2ccccc2)C(=O)N[C@H]2c3ccccc3C[C@H]2O)cc1
-2.1	-4.9	4.7	17.1	9.2	6.95 to 17.4	O=C(NC1CCCC1)[C@H](Cc1ccccc1)C[C@H](O)CNS(=O)(=O)c1ccc([N+](=O)[O-])cc1
18.4	18.3	19.6	17.4	20	9.5 to 19.8	O=C(NC[C@@H](O)C[C@@H](Cc1ccccc1)C(=O)N[C@H]1c2ccccc2C[C@H]1O)C(Cl)Cl
-5.4	4.7 to 13.8	13.8 to 18.2	20	24	21.1 to 23.9	O=C(NCc1ccc(F)cc1F)[C@@H](Cc1ccccc1)C[C@H](O)CNS(=O)(=O)c1ccc([N+](=O)[O-])cc1
6.3	7.1	4.4	4.4	6.5	-6.4 to 5.45	O=C(NN1CCCCC1)[C@H](Cc1ccccc1)C[C@H](O)CNS(=O)(=O)c1ccc([N+](=O)[O-])cc1
14	22.3	21.1	18.6	16.4	-0.5 to 18.8	O=C(NC[C@@H](O)C[C@@H](Cc1ccccc1)C(=O)N[C@H]1c2ccccc2C[C@H]1O)c1ccc([N+](=O)[O-])cc1
18.4	19.2	15.6	23.7	17.5	9.9 to 16.6	O=C(CCl)NC[C@@H](O)C[C@@H](Cc1ccccc1)C(=O)N[C@H]1c2ccccc2C[C@H]1O
-5	-2.5	-2.8	-1.3	0.4	-1.2 to 13.4	CC1CCC(NC(=O)[C@H](Cc2ccccc2)C[C@H](O)CNS(=O)(=O)c2ccc([N+](=O)[O-])cc2)CC1 (stereo partly specified)
